Holding throughout (test): Expanded panel MIC micro-broth dilution
Holding throughout (type): cell-based
For orientation: Broth dilution looks for growth in wells or tubes with falling amounts of substance.

The subject of assay [1] is Staphylococcus warneri Clinical isolate. As to conditions: CaMHB. As to the method: (§1) The collaborator supplied sample as dry material. Angela Kavanagh prepared a stock solution at 10 mg/mL in neat DMSO. The highest concentration tested in the assay was 64 μg/mL for bacteria and 128 μg/mL for fungi. 2% DMSO was the final concentration using 1/20 dilution to achieve these concentrations.
(§2) The compound was serially diluted in Cation-adjusted Mueller Hinton Broth (CaMHB; BD, Cat. No. 212322) two-fold across the wells of polystyrene (PS) 96-well plates (Corning; Cat. No. 3370), plated in duplicate. All plates had flat bottom wells and were covered with low-evaporation lids.
(§3) Bacteria were cultured in CaMHB at 37° C. overnight, then diluted 40-fold and incubated at 37° C. for a further 2-3 h. The resultant mid-log phase cultures were diluted in CaMHB and added to each well of the compound-containing 96-well plates to give a final cell density of 5×10^5 CFU/mL, and a final compound concentration range of 0.03-64 μg/mL. The plates were covered and incubated at 37° C. for 20 h.
(§4) Inhibition of bacterial growth was determined visually, where the MIC was recorded as the lowest compound concentration with no visible growth.

In assay [2] the test system is Bacillus megaterium ATCC 13632. The conditions noted are these: CaMHB. The method, then:
as §1, §2, §3, §4

The subject of assay [3] is Staphylococcus aureus NARSA, VRS1. The conditions noted are these: CaMHB. As to the method: as §1, §2, §3, §4
Assay [4] deals with Streptococcus pneumoniae ATCC 700677. The conditions noted are these: ATCC700677, CaMHB, read-out: Cannabidiol MIC (Batch 1). The method, then:
as §1, §2, §3, §4

Assay [5] has as its system Streptococcus pneumoniae ATCC 33400. The conditions noted are these: CaMHB. The method, then:
as §1, §2, §3, §4

Assay [6] concerns Staphylococcus epidermidis ATCC 14990. As to conditions: CaMHB. The method, then: as §1, §2, §3, §4
The subject of assay [7] is Staphylococcus aureus ATCC 43300. As to conditions: ATCC43300, CaMHB, read-out: Cannabidiol MIC (Batch 1). The method, then:
as §1, §2, §3, §4

In assay [8] the test system is Streptococcus pyogenes ATCC 12344. The conditions noted are these: ATCC12344, CaMHB, read-out: Cannabidiol MIC (Batch 1). As to the method: as §1, §2, §3, §4
For assay [9], the system named is Enterococcus faecalis ATCC 29212. The conditions noted are these: ATCC29212, CaMHB, read-out: Cannabidiol MIC (Batch 1). As to the method:
as §1, §2, §3, §4

Assay [10] concerns Enterococcus faecium ATCC 35667. The conditions noted are these: CaMHB. The method, then: as §1, §2, §3, §4
Assay [11] deals with Staphylococcus epidermidis NRS 60. The conditions noted are these: CaMHB. As to the method: as §1, §2, §3, §4
For assay [12], the system named is Staphylococcus aureus ATCC 25923. As to conditions: CaMHB. The method, then:
as §1, §2, §3, §4

Molecules are shown by their SMILES. Converted amounts (≈) assume the structure as drawn. “And” between values parts separate entries of the source, which are not always exact repeats. Identical values can stand only once.

`C=C(C)C1CCC(C)=CC1c1c(O)cc(CCCCC)cc1O` (centres unmarked) [Cannabidiol, 2-[3-methyl-6-(1-methylethenyl)-2-cyclohexen-1-yl]-5-pentyl-1,3-benzenediol]: the “Cannabidiol MIC (Batch 1)” value in [1] is 4 µg/mL; in assay [2] (Bacillus megaterium ATCC 13632) it was 2 µg/mL; in assay [3], 2 µg/mL; in [5] (Streptococcus pneumoniae ATCC 33400) it was 2 µg/mL; in [6] (Staphylococcus epidermidis ATCC 14990), 2 µg/mL; in [10] (Enterococcus faecium ATCC 35667), 1 µg/mL. Further, the “Cannabidiol MIC (Batch 1)” value in assay [11] (Staphylococcus epidermidis NRS 60) is 4 µg/mL and 8 µg/mL; in assay [12] (Staphylococcus aureus ATCC 25923), 2 µg/mL. Besides, the MIC – broadly, the lowest concentration that inhibits growth of the organism – came to 2 µg/mL (≈ 6.36 µM) in [1] (Staphylococcus warneri, read-out: Cannabidiol MIC (Batch 1)); 1 µg/mL (≈ 3.18 µM) in [2] (Priestia megaterium, ATCC13632, Bacillus megaterium ATCC 13632, read-out: Cannabidiol MIC (Batch 1)); 1 µg/mL (≈ 3.18 µM) in assay [3] (Staphylococcus aureus, read-out: Cannabidiol MIC (Batch 1)); 4 µg/mL (≈ 12.7 µM) in assay [4]; 1 µg/mL (≈ 3.18 µM) in assay [5] (Streptococcus pneumoniae, ATCC33400, Streptococcus pneumoniae ATCC 33400, read-out: Cannabidiol MIC (Batch 1)); 1 µg/mL (≈ 3.18 µM) in assay [6] (Staphylococcus epidermidis, ATCC14990, Staphylococcus epidermidis ATCC 14990, read-out: Cannabidiol MIC (Batch 1)). Also, the MIC is 1 µg/mL (≈ 3.18 µM) in assay [7]; 1 µg/mL (≈ 3.18 µM) in [8]; 2 µg/mL (≈ 6.36 µM) in assay [9]; 0.5 µg/mL (≈ 1.59 µM) in assay [10] (Enterococcus faecium, ATCC35667, Enterococcus faecium ATCC 35667, read-out: Cannabidiol MIC (Batch 1)); 4 to 8 µg/mL (≈ 12.7 to 25.4 µM) in assay [11] (Staphylococcus epidermidis, NRS60, Staphylococcus epidermidis NRS 60, read-out: Cannabidiol MIC (Batch 1)); 1 µg/mL (≈ 3.18 µM) in assay [12] (Staphylococcus aureus, ATCC25923, Staphylococcus aureus ATCC 25923, read-out: Cannabidiol MIC (Batch 1)).

(Values after patent US20220296535A1, “Antibacterial Dosage Regime Using Cannabinoids” (Botanix Pharmaceuticals Limited, priority 2019, published 2022).)
